From ChEMBL document CHEMBL3817848, “Synthesis and in vitro α-chymotrypsin inhibitory activity of 6-chlorobenzimidazole derivatives” (Bioorg Med Chem, 2016)

What was measured:
Homo sapiens = organism: Homo sapiens; assay: Inhibition of alpha-chymotrypsin (unknown origin) using N-succinyl-L-phenylalanine-p-nitroanilide as substrate at 500 uM preincubated for 25 mins by microplate reader method
[1] = Inhibition of alpha-chymotrypsin (unknown origin) using N-succinyl-L-phenylalanine-p-nitroanilide as substrate preincubated for 25 mins by microplate reader method; set-up: species or system Homo sapiens
[2] = Competitive inhibition of alpha-chymotrypsin (unknown origin) using N-succinyl-L-phenylalanine-p-nitroanilide as substrate; set-up: species or system Homo sapiens
[3] = Mixed inhibition of alpha-chymotrypsin (unknown origin) using n-succinyl-l-phenylalanine-p-nitroanilide as substrate; set-up: species or system Homo sapiens

Compound	inhibition (Homo sapiens) [%]	IC50 [1] [µM]	Ki [2] [µM]	Ki [3] [µM]
Clc1ccc2nc(-c3cccnc3)[nH]c2c1	> 50	48.9	50.1	
Clc1ccc2nc(-c3cccc4ccccc34)[nH]c2c1	> 50	20.9	25.3	
CC(C)c1ccc(-c2nc3ccc(Cl)cc3[nH]2)cc1	< 50	428		
CCOc1cc(-c2nc3ccc(Cl)cc3[nH]2)ccc1O	> 50	15.9	17.3	
Fc1ccccc1-c1nc2ccc(Cl)cc2[nH]1	> 50	118	79.3	
COc1ccc(-c2nc3ccc(Cl)cc3[nH]2)cc1OC	> 50	14.8	16.4	
O=[N+]([O-])c1ccc(-c2nc3cc(Cl)ccc3[nH]2)cc1	< 50	471		
Clc1ccc2[nH]c(/C=C/c3ccccc3)nc2c1	< 50	486		
N#Cc1ccc(-c2nc3cc(Cl)ccc3[nH]2)cc1	< 50	> 500		
Cn1c(-c2ccco2)nc2ccc(Cl)cc21	> 50	93.1	71.4	
CN(C)c1ccc(-c2nc3ccc(Cl)cc3[nH]2)cc1	> 50	24.2	17.5	
COc1cccc(-c2nc3ccc(Cl)cc3[nH]2)c1	> 50	38.1		36.5
Oc1ccccc1-c1nc2cc(Cl)ccc2[nH]1	< 50	> 500		

Second part, the compound after the results:

inhibition (Homo sapiens) [%]	IC50 [1] [µM]	Ki [2] [µM]	Ki [3] [µM]	Compound
> 50	96.4	99.8		Clc1ccc2nc(-c3c(Cl)cccc3Cl)[nH]c2c1
> 50	34.6	33.3		Oc1ccc(-c2nc3ccc(Cl)cc3[nH]2)c(O)c1
< 50	> 500			Clc1ccc2[nH]c(-c3ccccc3)nc2c1
< 50	> 500			Cc1ccc(-c2nc3cc(Cl)ccc3[nH]2)cc1
> 50	35.6	39.6		Clc1ccc(-c2nc3ccc(Cl)cc3[nH]2)c(Cl)c1
< 50	458			Clc1ccc2nc(-c3cccc(Br)c3)[nH]c2c1
< 50	> 500			O=[N+]([O-])c1ccc(Cl)c(-c2nc3ccc(Cl)cc3[nH]2)c1
